ChEMBL document CHEMBL4038345, “Design, Synthesis, and Biological Evaluation of Novel Selenium-Containing Isocombretastatins and Phenstatins as Antitumor Agents” (J Med Chem, 2017)
Activity calls are given as the source filed them. The calls are words filed in the database; no cut-off is given here.

What was measured:
[1] = tested on: A549; assay: Induction of apoptosis in human A549 cells assessed as late apoptotic cells at 5 nM for 24 hrs by annexin V-FITC/propidium iodide staining-based flow cytometry analysis; type: functional
[2] = tested on: HCT-116; assay: cells; details: Homo sapiens, HCT-116, 48 h
[3] = tested on: A549; assay: Induction of apoptosis in human A549 cells assessed as early apoptotic cells at 5 nM for 48 hrs by annexin V-FITC/propidium iodide staining-based flow cytometry analysis (reference value: 0.97%); type: functional
[4] = tested on: A549; assay: Induction of apoptosis in human A549 cells assessed as late apoptotic cells at 10 nM for 48 hrs by annexin V-FITC/propidium iodide staining-based flow cytometry analysis; type: functional
[5] = tested on: A549; assay: Induction of apoptosis in human A549 cells assessed as downregulation of Bcl-xl expression at 1 to 10 nM after 24 to 48 hrs by Western blot analysis; type: functional, cell-based
[6] = tested on: A549; assay: Disruption of mitochondrial membrane potential in human A549 cells at 1 to 10 nM after 24 hrs by JC1/Hoechst 33342 staining-based fluorescence microscopic method; type: functional, cell-based
[7] = tested on: A549; assay: Induction of apoptosis in human A549 cells assessed as late apoptotic cells at 1 nM for 24 hrs by annexin V-FITC/propidium iodide staining-based flow cytometry analysis; type: functional
[8] = tested on: A549; assay: Cell cycle arrest in human A549 cells assessed as increase in accumulation of cells at G2/M phase at 5 to 10 nM after 24 hrs by propidium iodide staining-based flow cytometry method; type: functional
[9] = tested on: A2780; assay: cells; details: Homo sapiens, A2780, 48 h
Description: Antiproliferative activity against human A2780 cells after 48 hrs by MTT assay

[10] = tested on: A549; assay: Induction of apoptosis in human A549 cells assessed as downregulation of Bcl2 expression at 1 to 10 nM after 24 to 48 hrs by Western blot analysis; type: functional, cell-based
[11] = tested on: A549; assay: Induction of apoptosis in human A549 cells assessed as live cells at 5 nM for 48 hrs by annexin V-FITC/propidium iodide staining-based flow cytometry analysis (reference value: 99.01%); type: functional
[12] = tested on: A549; assay: Induction of apoptosis in human A549 cells assessed as necrotic cells at 5 nM for 48 hrs by annexin V-FITC/propidium iodide staining-based flow cytometry analysis (reference value: 0.02%); type: functional
[13] = tested on: A549; assay: Induction of apoptosis in human A549 cells assessed as late apoptotic cells at 5 nM for 48 hrs by annexin V-FITC/propidium iodide staining-based flow cytometry analysis; type: functional
[14] = tested on: A549/CDDP; assay: Antiproliferative activity against human A549/CDDP cells after 48 hrs by MTT assay; type: functional, cell-based
[15] = Resistance index, ratio of IC50 for human HepG2/DOX cells to IC50 for human HepG2 cells; type: functional
[16] = tested on: A549; assay: cells; details: Homo sapiens, A549, 48 h
[17] = tested on: A549; assay: Disruption of mitochondrial membrane potential in human A549 cells at 1 nM after 24 hrs by JC1 staining-based flow cytometry method (reference value: 0.62%); type: functional
[18] = tested on: HepG2; assay: cells; details: Homo sapiens, HepG2, 48 h
[19] = tested on: A549; assay: Induction of apoptosis in human A549 cells assessed as early apoptotic cells at 1 nM for 24 hrs by annexin V-FITC/propidium iodide staining-based flow cytometry analysis (reference value: 0.82%); type: functional
[20] = tested on: MDA-MB-231; assay: Antiproliferative activity against human MDA-MB-231 cells after 48 hrs by MTT assay; details: MDA-MB-231, 48 h
[21] = tested on: LoVo; assay: Antiproliferative activity against human LoVo cells after 48 hrs by MTT assay
[22] = tested on: A549; assay: Induction of apoptosis in human A549 cells assessed as late apoptotic cells at 1 nM for 48 hrs by annexin V-FITC/propidium iodide staining-based flow cytometry analysis; type: functional
[23] = tested on: A549; assay: Induction of apoptosis in human A549 cells assessed as upregulation of Bad expression at 1 to 10 nM after 24 to 48 hrs by Western blot analysis; type: functional, cell-based
[24] = tested on: MCF7; assay: cells; details: Homo sapiens, MCF7, 48 h
[25] = tested on: A549; assay: Disruption of mitochondrial membrane potential in human A549 cells after 24 hrs by JC1 staining-based flow cytometry method; type: functional, cell-based
[26] = tested on: RKO; assay: Antiproliferative activity against human RKO cells after 48 hrs by MTT assay
[27] = tested on: A549; assay: Induction of apoptosis in human A549 cells assessed as necrotic cells at 5 nM for 24 hrs by annexin V-FITC/propidium iodide staining-based flow cytometry analysis (reference value: 0.03%); type: functional
[28] = tested on: A549; assay: Induction of apoptosis in human A549 cells assessed as live cells at 1 nM for 24 hrs by annexin V-FITC/propidium iodide staining-based flow cytometry analysis (reference value: 99.15%); type: functional
[29] = tested on: MGC-803; assay: Antiproliferative activity against human MGC803 cells after 48 hrs by MTT assay; details: MGC-803, 48 h
[30] = tested on: A549; assay: Induction of apoptosis in human A549 cells assessed as live cells at 5 nM for 24 hrs by annexin V-FITC/propidium iodide staining-based flow cytometry analysis (reference value: 99.15%); type: functional
[31] = Metabolic stability in Sprague-Dawley rat liver microsomes assessed as compound remaining after 90 mins in presence of NADPH by UV-based HPLC-MS/MS analysis; type: ADME, microsome; details: read-out: Stability
[32] = tested on: A549; assay: Disruption of mitochondrial membrane potential in human A549 cells assessed as intact mitochondrial membrane at 1 nM after 24 hrs by JC1 staining-based flow cytometry method (reference value: 99.18%); type: functional
[33] = tested on: A549; assay: Induction of apoptosis in human A549 cells assessed as necrotic cells at 1 nM for 24 hrs by annexin V-FITC/propidium iodide staining-based flow cytometry analysis (reference value: 0.03%); type: functional
[34] = tested on: A549; assay: Induction of apoptosis in human A549 cells assessed as live cells at 10 nM for 48 hrs by annexin V-FITC/propidium iodide staining-based flow cytometry analysis (reference value: 99.01%); type: functional
[35] = tested on: A549; assay: Induction of apoptosis in human A549 cells assessed as early apoptotic cells at 5 nM for 24 hrs by annexin V-FITC/propidium iodide staining-based flow cytometry analysis (reference value: 0.82%); type: functional
[36] = Antiproliferative activity against human HepG2/DOX cells after 48 hrs by MTT assay; type: functional, cell-based
[37] = tested on: A549; assay: Induction of microtubule disruption in human A549 cells at 5 to 10 nM after 8 to 24 hrs by Hoechst 33342 staining-based laser scanning confocal immunofluorescence microscopic analysis; type: cell-based
[38] = Metabolic stability in Sprague-Dawley rat liver microsomes assessed as compound remaining after 120 mins in presence of NADPH by UV-based HPLC-MS/MS analysis; type: ADME, microsome; details: read-out: Stability
[39] = tested on: A549; assay: Induction of apoptosis in human A549 cells assessed as necrotic cells at 10 nM for 48 hrs by annexin V-FITC/propidium iodide staining-based flow cytometry analysis (reference value: 0.02%); type: functional
[40] = tested on: A549; assay: Disruption of mitochondrial membrane potential in human A549 cells assessed as intact mitochondrial membrane at 10 nM after 24 hrs by JC1 staining-based flow cytometry method (reference value: 99.18%); type: functional

C=C(c1ccc(OC)c(O)c1)c1cc(OC)c(OC)c([Se]C)c1
Activity [1]: 2.52% | IC50 [2]: 12 nM | Activity [3]: 15.69% | Activity [4]: 20.44% | Activity [5]: Active | Activity [6]: Active | Activity [7]: 0.01% | Activity [8]: 70% | IC50 [9]: 6 nM | Activity [10]: Active | Activity [11]: 49.13% | Activity [12]: 10.45% | Activity [13]: 24.73% | IC50 [14]: 34.4 nM | Ratio IC50 [15]: 6.8 | IC50 [16]: 3.9 nM | Activity [17]: 12.78% | IC50 [18]: 3 nM | Activity [19]: 3.63% | IC50 [20]: 2.2 nM | IC50 [21]: 9 nM | Activity [22]: 2.86% | Activity [23]: Active | IC50 [24]: 27 nM | Activity [25]: Dose-dependent effect | IC50 [26]: 11 nM | Activity [27]: 1.69% | Activity [28]: 96.34% | IC50 [29]: 9 nM | Activity [30]: 64.43% | remaining at 1.5 h [31]: 44.1% | Activity [32]: 86.88% | Activity [33]: 0.2% | Activity [34]: 23.45% | Activity [35]: 31.36% | IC50 [36]: 20.3 nM | Activity [37]: Active | remaining at 2 h [38]: 33.4% | Activity [39]: 13.55% | Activity [40]: 9.14%
